# Reference: the supplement of paper PMC10307832
# Tests used:
# Assay in all cases: relative viability (nuclei count vs DMSO), 5 days (fraction); higher = more cells survive
# NCI-H2087 = test system: NCI-H2087
# Outline: (§1)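 Lung cancer cell lines in 1536-well plates got either a single drug or a fixed anchor-drug dose together with five library-drug doses (not always all listed) in √10 steps, by pin tool, on the day after seeding. Nuclei were counted after 5 days, and relative viability is the treated-to-vehicle ratio of nuclei counts. Values are medians of duplicate plates.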
# NCI-H2126 = test system: NCI-H2126
# Outline: as §1
# NCI-H2347 = test system: NCI-H2347
# Outline: as §1
# NCI-H23 = test system: NCI-H23
# Outline: as §1
# NCI-H2405 = test system: NCI-H2405
# Outline: as §1
# NCI-H322M = test system: NCI-H322M
# Outline: as §1
# NCI-H520 = test system: NCI-H520
# Outline: as §1
# NCI-H647 = test system: NCI-H647
# Outline: as §1
# NCI-H650 = test system: NCI-H650
# Outline: as §1
# NCI-H661 = test system: NCI-H661
# Outline: as §1
# PC-14 = test system: PC-14
# Outline: as §1
# RERF-LC-KJ = test system: RERF-LC-KJ
# Outline: as §1
structure (smiles),measurement,setting,value
C=C1C(=O)O[C@@H](CCCCCCCC)[C@@H]1C(=O)O [C-75] + Cc1cc(Nc2cc(N3CCN(C)CC3)nc(Sc3ccc(NC(=O)C4CC4)cc3)n2)n[nH]1 [Tozasertib] (partner 0.1 µM),relative viability,NCI-H2087; first compound 0.8 µM,0.179
same,relative viability,NCI-H2087; first compound 2.53 µM,0.228
same,relative viability,NCI-H2087; first compound 8 µM,0.305
same,relative viability,NCI-H2126; first compound 0.08 µM,0.873
same,relative viability,NCI-H2126; first compound 0.253 µM,0.949
same,relative viability,NCI-H2126; first compound 0.8 µM,0.841
same,relative viability,NCI-H2126; first compound 2.53 µM,0.795
same,relative viability,NCI-H2126; first compound 8 µM,0.777
same,relative viability,NCI-H2347; first compound 0.08 µM,0.558
same,relative viability,NCI-H2347; first compound 0.253 µM,0.74
same,relative viability,NCI-H2347; first compound 0.8 µM,0.517
same,relative viability,NCI-H2347; first compound 8 µM,0.534
same,relative viability,NCI-H23; first compound 0.08 µM,0.36
same,relative viability,NCI-H23; first compound 0.253 µM,0.57
same,relative viability,NCI-H23; first compound 0.8 µM,0.417
same,relative viability,NCI-H23; first compound 2.53 µM,0.339
same,relative viability,NCI-H23; first compound 8 µM,0.254
same,relative viability,NCI-H2405; first compound 0.08 µM,0.747
same,relative viability,NCI-H2405; first compound 0.253 µM,0.683
same,relative viability,NCI-H2405; first compound 0.8 µM,0.756
same,relative viability,NCI-H2405; first compound 2.53 µM,0.772
same,relative viability,NCI-H2405; first compound 8 µM,0.81
same,relative viability,NCI-H322M; first compound 0.08 µM,0.46
same,relative viability,NCI-H322M; first compound 0.253 µM,0.453
same,relative viability,NCI-H322M; first compound 0.8 µM,0.458
same,relative viability,NCI-H322M; first compound 2.53 µM,0.302
same,relative viability,NCI-H322M; first compound 8 µM,0.487
same,relative viability,NCI-H520; first compound 0.08 µM,0.428
same,relative viability,NCI-H520; first compound 0.253 µM,0.393
same,relative viability,NCI-H520; first compound 0.8 µM,0.395
same,relative viability,NCI-H520; first compound 2.53 µM,0.295
same,relative viability,NCI-H520; first compound 8 µM,0.46
same,relative viability,NCI-H647; first compound 0.08 µM,0.24
same,relative viability,NCI-H647; first compound 0.253 µM,0.365
same,relative viability,NCI-H647; first compound 0.8 µM,0.211
same,relative viability,NCI-H647; first compound 2.53 µM,0.457
same,relative viability,NCI-H647; first compound 8 µM,0.233
same,relative viability,NCI-H650; first compound 0.08 µM,0.759
same,relative viability,NCI-H650; first compound 0.253 µM,0.651
same,relative viability,NCI-H650; first compound 0.8 µM,0.718
same,relative viability,NCI-H650; first compound 2.53 µM,0.616
same,relative viability,NCI-H650; first compound 8 µM,0.62
same,relative viability,NCI-H661; first compound 0.08 µM,0.355
same,relative viability,NCI-H661; first compound 0.253 µM,0.347
same,relative viability,NCI-H661; first compound 0.8 µM,0.334
same,relative viability,NCI-H661; first compound 2.53 µM,0.288
same,relative viability,NCI-H661; first compound 8 µM,0.339
same,relative viability,PC-14; first compound 0.08 µM,0.597
same,relative viability,PC-14; first compound 0.253 µM,0.479
same,relative viability,PC-14; first compound 0.8 µM,0.548
same,relative viability,PC-14; first compound 2.53 µM,0.544
same,relative viability,PC-14; first compound 8 µM,0.578
same,relative viability,RERF-LC-KJ; first compound 0.08 µM,0.561
same,relative viability,RERF-LC-KJ; first compound 0.253 µM,0.568
same,relative viability,RERF-LC-KJ; first compound 0.8 µM,0.557
same,relative viability,RERF-LC-KJ; first compound 2.53 µM,0.493
same,relative viability,RERF-LC-KJ; first compound 8 µM,0.536
